This note sets out measurements from PubChem BioAssay (NCI).

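In this assay, cells in 96-well plates receive the compound at five concentrations for 48 hours. Endpoints are linearly interpolated between the surrounding concentrations. Abbreviation: GI50, concentration required for 50% inhibition of growth. The concentration for full growth arrest is given as TGI.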

Holding throughout (assay): NCI-60 cell line screen, 48 h
Experiment [1] concerns SK-MEL-5 melanoma.
Experiment [2] relates to OVCAR-5 ovarian.
The test system of experiment [3] is SN12C renal.
The test system of experiment [4] is COLO 205 colon.
Experiment [5] deals with HCT-116 colon.
Experiment [6] has as its system MCF7 breast.
In experiment [7] the test system is UACC-62 melanoma.
Experiment [8] has as its system OVCAR-3 ovarian.
The subject of experiment [9] is HL-60(TB) leukemia.
The test system of experiment [10] is UO-31 renal.

For the compound `ClCC#CCSc1ncnc2c1ncn2CC#CCCl`, the GI50 in experiment [1] was 1.29 µM; in [2] it was 1.73 µM; in experiment [3], 1.55 µM; in experiment [4], 1.56 µM; in experiment [5], 1.42 µM; in experiment [6], 1.18 µM. Further, the GI50 was 1.17 µM in experiment [7], 1.51 µM in [8], 1.99 µM in experiment [9] and 1.33 µM in experiment [10]. In addition, the TGI in [1] amounted to 2.66 µM; in experiment [2], 3.34 µM; in experiment [3], 3.65 µM; in [4] it was 3.03 µM; in experiment [5], 2.93 µM; in [6], 3.62 µM. The TGI in [7] is 2.66 µM; in experiment [8], 2.95 µM; in [9] it was 5.73 µM; in experiment [10], 3.38 µM.

Consider `CCOC(=O)c1ccccc1-c1c2ccc(=[N+](C)C)cc-2oc2cc(N(C)C)ccc12`, for which the GI50 in experiment [1] is 0.205 µM; in experiment [2] it was 0.537 µM; in experiment [3], 0.171 µM; in [4], 0.143 µM; in experiment [5], 0.257 µM; in experiment [6] it was 0.101 µM. The GI50 in experiment [7] was 0.332 µM; in experiment [8], 0.209 µM; in [9] it was 0.229 µM; in [10], 2.18 µM. For the same compound, the TGI was 0.632 µM in experiment [1]; above 39.6 µM in experiment [2]; 4.31 µM in [3]; 0.43 µM in [4]; 13.1 µM in [5]; 19.4 µM in [6]. In addition, the TGI stood at 4.12 µM in [7], 13.4 µM in experiment [8], 1.08 µM in experiment [9] and 8.1 µM in [10].

Turning to `C1CC[N-]CC1.CC(=N\O)/C(C)=N/O.CC(=N\O)/C(C)=N/O.[CH2-]CCN1CCOCC1.[Co+2]`, the GI50 in experiment [1], in experiment [2], in experiment [3], in [4], in experiment [5] and in experiment [6] was above 100 µM each time. Further, the GI50 in [7], in experiment [8], in experiment [9] and in experiment [10] was above 100 µM in each case. In addition, the TGI in experiment [1], in [2], in experiment [3], in experiment [4], in [5] and in [6] was above 100 µM throughout. The TGI in experiment [7], in experiment [8], in experiment [9] and in experiment [10] was above 100 µM in each case.

`COc1ccc(-c2c(N)n[nH]c2-c2cc(OC)c(OC)c(OC)c2)cc1`: the GI50 in experiment [1] was 0.113 µM; in experiment [2] it was 0.572 µM; in [3] it was 0.635 µM; in experiment [4], 0.363 µM; in experiment [5], 0.173 µM; in experiment [6] it was 0.0732 µM. The GI50 was 0.14 µM in [7], 0.04 µM in experiment [8], 0.0474 µM in experiment [9] and 0.926 µM in experiment [10]. The TGI in experiment [1] is 10 µM; in experiment [2] it was above 100 µM; in experiment [3] it was above 100 µM; in experiment [5] it was above 38.8 µM; in experiment [6], above 100 µM; in experiment [7], above 100 µM. Moreover, the values for the TGI in experiment [8], in experiment [9] and in experiment [10] were 0.187 µM, 0.516 µM and above 68.7 µM, respectively.

In the case of `O=C(Nc1ccc(I)cc1F)c1cc(I)ccc1O`, the GI50 was 0.285 µM in experiment [1]; 3.05 µM in experiment [2]; 0.511 µM in experiment [3]; 7.17 µM in experiment [4]; 0.768 µM in [5]; 1.55 µM in experiment [6]. For the same compound, the GI50 in experiment [7] was 0.312 µM; in experiment [8], 0.714 µM; in experiment [9] it was 0.517 µM; in experiment [10], 0.535 µM. The TGI in experiment [1] is 0.807 µM; in [2] it was above 100 µM; in experiment [4], 24 µM; in [5] it was 3.35 µM; in [6] it was 9.28 µM; in [7], 1.22 µM. The results for the TGI in experiment [8], in experiment [9] and in experiment [10] were above 100 µM, 1.66 µM and 2.22 µM, respectively.

Regarding `CN1CCN(CCOc2ccc(-c3cnc4c(-c5ccc(F)cc5)cnn4c3)cc2)CC1`, the GI50 in experiment [1] is 1.64 µM; in [2], 1.6 µM; in experiment [3], 1.69 µM; in experiment [5], 1.55 µM; in [6], 1.48 µM; in [7], 1.78 µM. Further, the GI50 in experiment [8] is 1.68 µM; in experiment [9], 2.09 µM; in [10], 1.31 µM. Also, the TGI in [1] was found to be 3.04 µM; in [2], 3.03 µM; in experiment [3], 3.23 µM; in experiment [5], 3.05 µM; in experiment [6] it was 3.05 µM; in [7] it was 3.36 µM. Also, the results for the TGI in experiment [8], in [9] and in experiment [10] were 3.35 µM, 4.47 µM and 2.93 µM, respectively.

For the compound `COc1ccc(NC(=O)/C=C(C)/C=C/C=C(C)\C=C\C2=C(C)CCCC2(C)C)cc1`, the GI50 in [1] was 40.9 µM; in experiment [2] it was above 100 µM; in experiment [3] it was 97.3 µM; in experiment [4] it was 75.9 µM; in [5] it was 28.6 µM; in experiment [6], 40.3 µM. Besides, the GI50 in experiment [7] was 24.6 µM; in [8], 70.4 µM; in experiment [9] it was 2.13 µM; in [10], above 100 µM. For the same compound, the TGI in experiment [1], in [2], in experiment [3], in experiment [4], in [5] and in experiment [6] was above 100 µM in each case. In addition, the TGI is above 100 µM in experiment [7], above 100 µM in experiment [8], 16.1 µM in experiment [9] and above 100 µM in experiment [10].
